In patent publication US20130065820A1, “SYNTHETIC MYOSTATIN PEPTIDE ANTAGONISTS” (COVITA LIMITED, priority 2009, published 2013):
Values joined by “and” are separate entries in the source; they are usually repeats but may differ in a detail not shown here. Identical values can stand only once. Bridge positions count the residues as written; N and C are the ends. Ends that are not written are not given here.

Key:
[1] = test system: myoblasts; test: Myoblast proliferation / biological activity of synthetic peptides with other cysteine connectivities (results not shown); format: cell-based; details: synthetic peptides of stated connectivity or truncation
Protocol: (§1) Bovine C2C12 myoblasts were grown in Dulbecco's modified eagle medium according to the standard techniques (Thomas et al, 2000). The myoblast proliferation assay was carried out in uncoated 96-well microtitre plates. C2C12 cultures were seeded at 1000 cells/well. Following a 16-hour attachment period, test media containing varying concentrations of either the synthetic 310 peptide in the 2-3 conformation, the synthetic 310 peptide in the 1-4/2-3 conformation or the positive control (recombinant 310 peptide) were added and cells were incubated for a further 48 or 72 hour period. After the incubation period, proliferation was assessed using methylene blue photometric endpoint assay as previously described (Thomas et al, 2000).
A number of synthetic peptides were prepared having an amino acid sequence corresponding to amino acids at positions 267-310 and 282-310 of SEQ ID NO:1. Of the 267-310 peptides a number of different connectivities were prepared as follows: • 1. 1-3/2-4 • 2. 1-2/3-4 • 3. 1-2 • 4. 1-3 • 5. 1-4 • 6. 1-2, 3-4/1-3, 2-4 • 7. 2-4 • 8. 3-4 • 9. 1-4/2-3 • 10. Linear (no forced connectivity)
The peptides were synthesized as described above in example 1. Different cysteine residues were protected and deprotected to produce the specified connectivities and would be understood by a skilled worker.

[2] = test system: C2C12 myoblasts; test: Myoblast proliferation assay (methylene blue photometric endpoint); format: cell-based, Mouse; details: for % proliferation above control: control (media + buffer) = 100%; for myoblast proliferation / biological activity (in words): 48 or 72 hours, compared to control (media and buffer only)
Description: A synthetic peptide of the invention, or a functional variant or fragment thereof has the biological function of antagonising myostatin activity. To determine whether a synthetic peptide of the invention, or functional variant or fragment thereof, is able to antagonise myostatin activity, such activity can be tested by growing myoblasts in the presence or absence (control) of a candidate synthetic peptide of the invention. […] A suitable cell line could be murine C2Cl2 myoblasts (ATCC NO: CRL-1772), however, it will be appreciated that any suitable myoblast cell line could be used, such as primary ovine, bovine, porcine or human myoblasts.
as §1, with “The” for “Bovine C2C12 myoblasts were grown in Dulbecco's modified eagle medium according to the standard techniques (Thomas et al, 2000). The”

[3] = test system: C2C12 myoblasts; test: Nuclei count per well by DAPI staining of the myoblast proliferation plates; format: cell-based, Bovine
Protocol: as §1
To confirm that the increased proliferation observed in example 1 was not simply false positive results, the plates were used to count nuclei.
Cells in the wells of interest were stained with DAPI (4′-6-diamidino-2-phenylindole) which is a fluorescent dye that stains nuclei blue. DAPI was used at a concentration of […] in PBS and cells stained for 5 mins at room temperature, then washed once with PBS buffer. Images of each well were then captured via a Leica DMI 6000 microscope and an image analysis program (Image-Pro plus) utilised to count the nuclei. For each treatment (recombinant 310 positive control, and synthetic peptides (2-3) and (1-4/2-3) at 10 and 20 µg/ml), 3-6 wells per treatment were analysed.

[4] = test system: myostatin; details: recombinant peptide, WO 2008/016314; cited from earlier work

## 1-2: Synthetic 267-310 myostatin peptide with 1-2 cysteine connectivity (DFGLDCDEHSTESRCCRYPLTVDFEAFGWDWIIAPKRYKANYCS; disulfide 6-15; not fully specified (bridges); cysteine pairing not given here; UniProt O18836 267-310, looked up, fragment)
[1]
  biological activity / enhanced myoblast proliferation (in words): not biologically active

## 1-3: Synthetic 267-310 myostatin peptide with 1-3 cysteine connectivity (DFGLDCDEHSTESRCCRYPLTVDFEAFGWDWIIAPKRYKANYCS; disulfide 6-16; not fully specified (bridges); cysteine pairing not given here; UniProt O18836 267-310, looked up, fragment)
[1]
  biological activity / enhanced myoblast proliferation (in words): not biologically active

## 1-4: Synthetic 267-310 myostatin peptide with 1-4 cysteine connectivity (DFGLDCDEHSTESRCCRYPLTVDFEAFGWDWIIAPKRYKANYCS; disulfide 6-43; not fully specified (bridges); cysteine pairing not given here; UniProt O18836 267-310, looked up, fragment)
[1]
  biological activity / enhanced myoblast proliferation (in words): not biologically active

## 2-4: Synthetic 267-310 myostatin peptide with 2-4 cysteine connectivity (DFGLDCDEHSTESRCCRYPLTVDFEAFGWDWIIAPKRYKANYCS; disulfide 15-43; not fully specified (bridges); cysteine pairing not given here; UniProt O18836 267-310, looked up, fragment)
[1]
  biological activity / enhanced myoblast proliferation (in words): not biologically active

## 3-4: Synthetic 267-310 myostatin peptide with 3-4 cysteine connectivity (DFGLDCDEHSTESRCCRYPLTVDFEAFGWDWIIAPKRYKANYCS; disulfide 16-43; not fully specified (bridges); cysteine pairing not given here; UniProt O18836 267-310, looked up, fragment)
[1]
  biological activity / enhanced myoblast proliferation (in words): not biologically active

## 310 positive control: Recombinant peptide of amino acids 267-310 of bovine myostatin with N terminal and C terminal tags, positive control (DFGLDCDEHSTESRCCRYPLTVDFEAFGWDWIIAPKRYKANYCS; cysteine pairing not given here; also: N- and C-terminal tags; UniProt O18836 267-310, looked up, fragment) [reference compound]
[2]; 10 μg, 48 h
  % proliferation above control: 113.58% and 111.76%
[2]; 10 μg, 72 h
  % proliferation above control: 122.97% and 119.64%
[2]
  myoblast proliferation / biological activity (in words): significantly enhanced myoblast proliferation
[3]; 10 μg, 48 h
  Number of nuclei per well: 847.1 and 816.7
[3]; 10 μg, 72 h
  Number of nuclei per well: 2429.3 and 2229.2

## 310 synthetic peptide that was N-terminally truncated at amino acid position 282: Synthetic peptide of amino acids 282-310 of SEQ ID NO:1, only cysteines 3 and 4 (CRYPLTVDFEAFGWDWIIAPKRYKANYCS; only cysteines 3 and 4; listed as Homo sapiens)
[1]
  biological activity / enhanced myoblast proliferation (in words): not active

## Synthetic 310 (2-3 connectivity): Synthetic peptide of amino acids 267-310 of bovine myostatin with forced disulfide between cysteines 2 and 3 (281, 282) (DFGLDCDEHSTESRCCRYPLTVDFEAFGWDWIIAPKRYKANYCS; disulfide 15-16; not fully specified (bridges); cysteine pairing not given here; UniProt O18836 267-310, looked up, fragment)
[2]; 0.1 μg, 48 h
  % proliferation above control: 101.66%
[2]; 0.1 μg, 72 h
  % proliferation above control: 101.06%
[2]; 1.0 μg, 48 h
  % proliferation above control: 97.70%
[2]; 1.0 μg, 72 h
  % proliferation above control: 102.00%
[2]; 10 μg, 48 h
  % proliferation above control: 104.18%
[2]; 10 μg, 72 h
  % proliferation above control: 103.83%
[2]; 20.0 μg, 48 h
  % proliferation above control: 105.00%
[2]; 20.0 μg, 72 h
  % proliferation above control: 105.07%
[2]
  myoblast proliferation / biological activity (in words): biologically active
[3]; 10 μg, 48 h
  Number of nuclei per well: 810.5
[3]; 10 μg, 72 h
  Number of nuclei per well: 1906.1
[3]; 20.0 μg, 48 h
  Number of nuclei per well: 808.9
[3]; 20.0 μg, 72 h
  Number of nuclei per well: 1903.6
[3]; 48 h
  increase in cell numbers (in words): significant increases in cell numbers
[3]; 72 h
  increase in cell numbers (in words): significant increases in cell numbers

## Synthetic 310 (2-3/1-4 connectivity): Synthetic peptide of amino acids 267-310 of bovine myostatin (SEQ ID NO:4) with forced 2-3/1-4 disulfide connectivity (DFGLDCDEHSTESRCCRYPLTVDFEAFGWDWIIAPKRYKANYCS; disulfide 15-16, 6-43)
[2]; 0.1 μg, 48 h
  % proliferation above control: 100.17%
[2]; 0.1 μg, 72 h
  % proliferation above control: 100.54%
[2]; 1.0 μg, 48 h
  % proliferation above control: 100.07%
[2]; 1.0 μg, 72 h
  % proliferation above control: 102.60%
[2]; 10 μg, 48 h
  % proliferation above control: 108.58%
[2]; 10 μg, 72 h
  % proliferation above control: 107.51%
[2]; 20.0 μg, 48 h
  % proliferation above control: 106.87%
[2]; 20.0 μg, 72 h
  % proliferation above control: 110.47%
[2]
  myoblast proliferation / biological activity (in words): slightly more biological activity
[1]
  biological activity / enhanced myoblast proliferation (in words): biologically active
[3]; 10 μg, 48 h
  Number of nuclei per well: 810.2
[3]; 10 μg, 72 h
  Number of nuclei per well: 2328.2
[3]; 20.0 μg, 48 h
  Number of nuclei per well: 739.3
[3]; 20.0 μg, 72 h
  Number of nuclei per well: 2172.0
[3]; 72 h
  increase in cell numbers (in words): significant increases in cell numbers

## linear 310 synthetic peptide: Synthetic 267-310 myostatin peptide, linear, no forced connectivity (DFGLDCDEHSTESRCCRYPLTVDFEAFGWDWIIAPKRYKANYCS; Growth/differentiation factor 8 linear; UniProt O18836 267-310, looked up, fragment)
[1]
  biological activity / enhanced myoblast proliferation (in words): showed enhanced myoblast proliferation

## mature recombinant myostatin peptide C-terminally truncated at position 281: Recombinant mature myostatin peptide truncated at 281, two cysteines (1-2 connectivity), from WO 2008/016314 (DFGLDCDEHSTESRC; disulfide 6-15; UniProt O18836 267-281, looked up, fragment)
[4]
  biological activity (in words): biologically active

## synthetic peptide having a truncation position at 281: Synthetic mature myostatin peptide C-terminally truncated at position 281 (DFGLDCDEHSTESRC; Growth/differentiation factor 8; UniProt O18836 267-281, looked up, fragment)
[1]
  biological activity / enhanced myoblast proliferation (in words): not biologically active
